Test results reported in article PMC6199744, “Development of Chemical Proteomics for the Folateome and Analysis of the Kinetoplastid Folateome” (ACS Infectious Diseases, 2018).
Like-named read-outs stand apart in the source and are kept apart here.

System: T. brucei lysate proteins
Assay type: binding, Trypanosoma brucei

Measured: fold change

CCCCCCOc1cccc(Cc2cnc(N)nc2N)c1 [compound 2]
0.93: relative to vehicle control = 1, protein TB427TMP.03.0090 RIBOKINASE, PUTATIVE | relative to vehicle control = 1, protein TB427TMP.160.4910 FLAVOPROTEIN MONOOXYGENASE, PUTATIVE | relative to vehicle control = 1, protein TB427.04.1510 PHOSPHOLIPID-TRA[…], PUTATIVE | relative to vehicle control = 1, protein TB427.05.1320 HY[…], CONSERVED | relative to vehicle control = 1, protein TB427.08.5460 FLAGELLAR CALCIUM-BINDING PROTEIN | vs vehicle control, protein TB427.08.550 PEPTIDE […] REDUCTASE, PUTATIVE | vs vehicle control, protein TB427.10.13660 HY[…], CONSERVED
1.1: relative to vehicle control = 1, protein TB11.02.0730 METACASPASE | relative to vehicle control = 1, protein TB427.10.14140 PYRUVATE KINASE 1 | relative to vehicle control = 1, protein TB927.2.2440 […]-ATPASE SUBUNIT 6 | vs vehicle control, protein TB427TMP.01.1540 HY[…], CONSERVED | vs vehicle control, protein TB427.10.14550 ATP-DEPENDENT DEAD/H RNA HELICASE, PUTATIVE
0.85: relative to vehicle control = 1, protein TB427TMP.02.5660 HY[…], CONSERVED | relative to vehicle control = 1, protein TB427.05.3800 GLUTAMINE HYDROLYSING (NOT AMMONIA-DEPENDENT) […] PHOSPHATE SYNTHASE, PUTATIVE
1.2: relative to vehicle control = 1, protein TB427.08.3490 HY[…], CONSERVED | vs vehicle control, protein TB427.05.3170 RIBOSE-PHOSPHATE PYROPHOSPHOKINASE, PUTATIVE
1.29: vs vehicle control, protein ADENOSINE TRANSPORTER 1 (CZT00028614.1)
0.95: relative to vehicle control = 1, protein TB427TMP.02.1460 HY[…], CONSERVED | relative to vehicle control = 1, protein TB427TMP.18.0005 HY[…], CONSERVED | relative to vehicle control = 1, protein TB427.01.4050 PROTEIN P[…] EF-HAND DOMAINS (PPEF) | relative to vehicle control = 1, protein TB927.3.1120 GTP-BINDING NUCLEAR PROTEIN RTB2, PUTATIVE | vs vehicle control, protein TB927.10.540 ATP-DEPENDENT DEAD/H RNA HELICASE, PUTATIVE
0.96: relative to vehicle control = 1, protein TB427TMP.01.7490 HY[…], CONSERVED | relative to vehicle control = 1, protein TB427TMP.39.0006 T[…] EIF2B DELTA SUBUNIT, PUTATIVE | relative to vehicle control = 1, protein TB427.08.5760 HY[…], CONSERVED | relative to vehicle control = 1, protein TB427.10.13880 HY[…], CONSERVED | relative to vehicle control = 1, protein TB927.10.5330 40S RIBOSOMAL PROTEIN S18, PUTATIVE | vs vehicle control, protein TB427.10.2290 CHAPERONE PROTEIN DNAJ, PUTATIVE
1: relative to vehicle control = 1, protein TB09.160.3270 ATP-DEPENDENT DEAD BOX HELICASE, PUTATIVE | relative to vehicle control = 1, protein TB11.02.4700 14-3-3 PROTEIN | relative to vehicle control = 1, protein TB427TMP.01.1830 HY[…], CONSERVED | relative to vehicle control = 1, protein TB427TMP.01.6880 CYTOSOLIC COAT PROTEIN, PUTATIVE | relative to vehicle control = 1, protein TB427TMP.160.4770 PROTEIN KINASE, PUTATIVE | relative to vehicle control = 1, protein TB427.10.4940 NUCLEAR DBF2-RELATED KINASE | relative to vehicle control = 1, protein TB427.10.7630 HY[…], CONSERVED | relative to vehicle control = 1, protein TB927.1.2400 ALPHA TUBULIN | vs vehicle control, protein TB427.03.4910 SIGNAL PEPTIDE PEPTIDASE, PUTATIVE | vs vehicle control, protein TB427.06.4770 HY[…], CONSERVED | vs vehicle control, protein TB927.8.4330 SMALL GTP-BINDING PROTEIN RAB11
0.77: relative to vehicle control = 1, protein TB427.10.2350 PYRUVATE DEH[…] E3 BINDING PROTEIN, PUTATIVE
0.8: relative to vehicle control = 1, protein TB427.05.2320 HY[…], CONSERVED
0.97: relative to vehicle control = 1, protein TB427.06.3650 ADP-RI[…], PUTATIVE | relative to vehicle control = 1, protein TB927.4.5310 SERINE/THREONINE-PROTEIN KINASE A, PUTATIVE | vs vehicle control, protein TB11.02.1220 […] SUBUNIT 2 | vs vehicle control, protein TB427TMP.02.5620 Tb427tmp.02.5620 | vs vehicle control, protein TB427.06.3630 SPHINGOSINE 1-PHOSPHATE LYASE, PUTATIVE
0.89: relative to vehicle control = 1, protein TB427TMP.02.2970 KINESIN, PUTATIVE | relative to vehicle control = 1, protein TB427.07.2570 MRNA […], PUTATIVE
1.45: vs vehicle control, protein TB427TMP.211.2730 GIM5A PROTEIN
0.81: vs vehicle control, protein TB427TMP.01.8510 T-COMPLEX PROTEIN 1, ALPHA SUBUNIT, PUTATIVE
0.56: relative to vehicle control = 1, protein TB927.4.4650 […] SYNTHASE, PUTATIVE
0.88: relative to vehicle control = 1, protein TB11.01.1290 14-3-3-I PROTEIN | relative to vehicle control = 1, protein TB427.10.15180 […] PROTEIN, PUTATIVE
0.87: relative to vehicle control = 1, protein TB427.08.6110 HY[…], CONSERVED
0.99: relative to vehicle control = 1, protein TB09.160.4250 TR[…] | relative to vehicle control = 1, protein TB11.50.0007 DYNEIN LIGHT CHAIN LC8, PUTATIVE | relative to vehicle control = 1, protein TB427TMP.02.4550 HY[…], CONSERVED | relative to vehicle control = 1, protein TB427TMP.03.0460 HY[…], CONSERVED | relative to vehicle control = 1, protein TB427.10.14910 SA[…] GLYCOPROTEIN, PUTATIVE | relative to vehicle control = 1, protein TB927.3.3490 HIGH MOBILITY GROUP PROTEIN, PUTATIVE | relative to vehicle control = 1, protein TB927.5.1930 HY[…], CONSERVED | relative to vehicle control = 1, protein TB927.6.2200 HY[…], CONSERVED | relative to vehicle control = 1, protein TB927.7.4480 ADENOSINE 5'-[…], PUTATIVE | relative to vehicle control = 1, protein TB927.8.1510 ATP-DEPENDENT DEAD/H RNA HELICASE, PUTATIVE | vs vehicle control, protein TB11.01.4370 HY[…], CONSERVED | vs vehicle control, protein TB427TMP.01.5690 DRBD4 | vs vehicle control, protein TB927.10.2100 […] 1-ALPHA | vs vehicle control, protein TB927.5.1630 HY[…], CONSERVED
0.92: relative to vehicle control = 1, protein TB427.05.300 THYMINE-7-HYDROXYLASE, PUTATIVE | relative to vehicle control = 1, protein TB427.08.3150 T-COMPLEX PROTEIN 1, GAMMA SUBUNIT, PUTATIVE | relative to vehicle control = 1, protein TB427.10.11930 NAD OR NADP DEPENDENT OXIDOREDUCTASE, PUTATIVE
0.9: vs vehicle control, protein TB427.05.2890 HY[…], CONSERVED | vs vehicle control, protein TB427.10.1510 NOT1
0.79: vs vehicle control, protein TB927.7.2750 PROTEIN KINASE, PUTATIVE
0.98: relative to vehicle control = 1, protein TB09.211.3540 GLYCEROL KINASE, GLYCOSOMAL | relative to vehicle control = 1, protein TB427TMP.01.7530 HY[…], CONSERVED | relative to vehicle control = 1, protein TB427TMP.02.3120 MALIC ENZYME, PUTATIVE | relative to vehicle control = 1, protein TB427TMP.02.5450 GLUCOSE-REGULATED PROTEIN 78, PUTATIVE | relative to vehicle control = 1, protein TB427.03.3560 HY[…], CONSERVED | relative to vehicle control = 1, protein TB927.10.12840 MIT[…] PROTEIN, PUTATIVE | relative to vehicle control = 1, protein TB927.10.14980 INTR[…] PROTEIN IFT52, PUTATIVE | vs vehicle control, protein TB427TMP.160.4240 […] PROTEIN-LIKE PROTEIN
0.78: relative to vehicle control = 1, protein TB427.03.3160 POLY(A) POLYMERASE | relative to vehicle control = 1, protein TB927.7.2700 NADH-CYTOCHROME B5 REDUCTASE, PUTATIVE
0.83: vs vehicle control, protein TB427.10.1170 INTR[…] PROTEIN IFT172, PUTATIVE
0.94: relative to vehicle control = 1, protein TB11.03.0815 DYNEIN LIGHT CHAIN | relative to vehicle control = 1, protein TB427TMP.02.2120 NUCLEOPORIN 48 | relative to vehicle control = 1, protein TB427.03.5420 PROTEIN TRANSPORT PROTEIN SEC24 | relative to vehicle control = 1, protein TB427.06.3860 HY[…], CONSERVED | relative to vehicle control = 1, protein TB927.10.4180 TFIIF-[…] PHOSPHATASE, PUTATIVE | relative to vehicle control = 1, protein TB927.10.6670 DYNEIN LIGHT CHAIN, PUTATIVE | relative to vehicle control = 1, protein TB927.6.4140 PAR[…] COMPONENT, PUTATIVE | vs vehicle control, protein TB927.2.4930 ESTERASE, PUTATIVE
0.84: relative to vehicle control = 1, protein TB427.06.2550 RNA-BINDING PROTEIN, PUTATIVE
0.91: vs vehicle control, protein TB427.10.8190 T-COMPLEX PROTEIN 1, THETA SUBUNIT, PUTATIVE
